Entries after “also recorded” stand apart in the source; their conditions may differ. Like-named read-outs stand apart in the source and are kept apart here. Marks after values point to notes of the source that are not given here.
Legend:
[1] = target: T1, ecTSase (Escherichia coli, UniProt P0A884); test: Noncompetitive KIE experiments; type: biochemical; conditions: w/ 50 mM MgCl2, 25 °C; for KMCH2H4folate / kcat: 100 μM dUMP, pH 7.5
[2] = target: ecTSase-dUMP complex; type: binding, Escherichia coli; conditions: read-out: KdCH4H4fol; w/o Mg^2+, 25 °C, calculated using Eq 5
[3] = target: Escherichia coli TSase (ecTSase) (Escherichia coli, UniProt P0A884); test: Steady-state initial velocities of ecTSase; type: biochemical; conditions: for Hill coefficient x (inhibitory binding mode): Eq 3
[4] = target: ecTSase-dUMP-Mg^2+ complex; type: binding, Escherichia coli; conditions: read-out: KdCH4H4fol; w/ 50 mM MgCl2, 25 °C, calculated using Eq 5
[5] = target: ecTSase-Mg^2+ complex (Escherichia coli, UniProt P0A884); test: Fluorescence assay, dUMP titration into ecTSase pre-incubated with MgCl2; type: binding
[6] = target: T2, apo-ecTSase (Escherichia coli, UniProt P0A884); test: biochemical
[7] = target: T1, ecTSase
[8] = target: T2, apo-ecTSase; conditions: read-out: Kd of Mg^2+ for apo-ecTSase; 25 °C, pH 7.5, one-site binding fit

T1 sequence (P0A884 whole entry): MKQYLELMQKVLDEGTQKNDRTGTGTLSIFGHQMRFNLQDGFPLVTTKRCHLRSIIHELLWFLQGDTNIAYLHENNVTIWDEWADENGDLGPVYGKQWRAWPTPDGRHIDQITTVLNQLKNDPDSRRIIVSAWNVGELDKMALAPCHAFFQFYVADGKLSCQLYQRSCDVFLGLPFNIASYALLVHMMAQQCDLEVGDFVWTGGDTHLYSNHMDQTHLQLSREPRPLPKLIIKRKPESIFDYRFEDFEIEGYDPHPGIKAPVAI
Escherichia coli TSase (ecTSase), sequence (P0A884 whole entry): as above
T2 sequence (P0A884 whole entry): as above
ecTSase-Mg^2+ complex, sequence (P0A884 whole entry, one chain of several): as the sequence (P0A884 whole entry) above

## [2H][C@]12CNc3nc(N)[nH]c(=O)c3N1CN(c1ccc(C(=O)N[C@@H](CCC(=O)O)C(=O)O)cc1)C2 [6R-D-CH2H4fol]
[1]
  KMCH2H4folate: 19 ± 5 µM
  kcat: 2.3 ± 0.2 s⁻¹

## Nc1nc2c(c(=O)[nH]1)N1CN(c3ccc(C(=O)N[C@@H](CCC(=O)O)C(=O)O)cc3)CC1CN2 (stereo partly drawn) [CH2H4fol, N^5,N^10-methylene-5,6,7,8-tetrahydrofolate]
[2]
  Kd: 17 ± 2 µM
[3]; absence of Mg^2+, best-fit integer
  Hill coefficient x (inhibitory binding mode): 2
[3]; both absence and presence of Mg^2+, best-fit integer, Eq 2
  Hill coefficient n (productive binding mode): 1
[3]; presence of Mg^2+ (50 mM MgCl2), best-fit integer
  Hill coefficient x (inhibitory binding mode): 1
[3]; w/ 50 mM MgCl2, 25 °C, 100 μM dUMP
  KMCH4H4fol: 15 ± 1 µM
[3]; w/o Mg^2+, 25 °C
  KMCH4H4fol: 17 ± 2 µM
[4]
  Kd: 8 ± 1 µM
[1]
  KMCH2H4folate: 15 ± 1 µM
  kcat: 8.7 ± 0.2 s⁻¹

## O=c1ccn([C@H]2C[C@H](O)[C@@H](COP(=O)(O)O)O2)c(=O)[nH]1 [dUMP, 2’-deoxyuridine-5’-monophosphate]
[3]; w/ 50 mM MgCl2, 25 °C, 150 μM CH2H4fol
  KMdUMP: 2.4 ± 0.2 µM
[3]; w/o Mg^2+, 25 °C
  KMdUMP: 0.5 ± 0.1 µM
[5]
  Kd: 14 ± 2 µM
[6]
  Kd: 8.5 ± 0.9 µM

## [Mg+2] [Mg^2+]
[7]; w/ 50 mM MgCl2
  AH/AT (isotope effect on the Arrhenius prefactors of the hydride transfer): 6.6 ± 1.3
[7]; w/ 50 mM MgCl2, 25 °C, competitive KIE experiment
  intrinsic H/D KIE (^Dk) on the hydride transfer: 3.9 ± 0.2^a
[8]
  Kd: 27000 ± 7000 µM
[3]; 50 mM MgCl2, 5-35 °C
  increase of kcat (hydride transfer rate) by Mg^2+: ca. 7 fold
[3]; 50 mM MgCl2, 25 °C
  increase of the Michaelis constant of dUMP by Mg^2+: ca. 5 fold
  reduction of activation free energy ΔG^‡ of kcat by Mg^2+: ca. 1 kcal/mol
  reduction of entropy of activation TΔS^‡ of kcat by Mg^2+: ca. 1 kcal/mol
[3]; w/ 50 mM MgCl2
  -TΔS^‡ at 25 °C from fitting kcat to the Eyring equation: 53.6 ± 0.84 kJ/mol
[3]; w/ 50 mM MgCl2, 5-35 °C
  ΔH^‡ from fitting kcat to the Eyring equation: 14.2 ± 0.84 kJ/mol
[3]; w/ 50 mM MgCl2, 25 °C
  ΔG^‡ from fitting kcat to the Eyring equation: 67.8 ± 1.7 kJ/mol
[1]
  observed H/D KIE on kcat (^Dkcat): 3.8 ± 0.3

## [Ca+2].[Cl-].[Cl-] [CaCl2]
[3]; 50 mM CaCl2, 25 °C
  effect on initial velocities (ionic strength control): no difference; also recorded: no effects on the initial velocities

— PMC3674108 (Journal of the American Chemical Society, 2013)
